Assay in all cases: inhibition of tumour cell growth, NCI panel, 48 h
Assay [1] deals with 786-0 renal.
The subject of assay [2] is ACHN renal.
For assay [3], the system named is CAKI-1 renal.
The test system of assay [4] is COLO 205 colon.
Assay [5] has as its system HL-60(TB) leukemia.
Assay [6] deals with HS 578T breast.
Assay [7] has as its system MDA-MB-231 breast.
The subject of assay [8] is OVCAR-3 ovarian.
The subject of assay [9] is SK-MEL-28 melanoma.
Assay [10] concerns SK-OV-3 ovarian.

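Step 1: Grow cells in 96-well plates. Step 2: Expose to compound for 48 hours at 5 concentrations. Step 3: Interpolate endpoints linearly; if unreached, use highest concentration. GI50 marks 50% less growth. At the TGI there is no net growth.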

For `O=C(C=C=Nc1ccccc1)C(=O)N=C=Cc1ccccc1`, the GI50 in [1] was 1.75 µM; in [2], 1.76 µM; in [3], 1.73 µM; in assay [4], 1.89 µM; in [5], 1.7 µM; in [6], 2.26 µM. The GI50 in assay [7] is 3.15 µM; in assay [8], 1.48 µM; in assay [9] it was 1.88 µM; in assay [10], 20.3 µM. In addition, the TGI came to 3.9 µM in [1]; 4.6 µM in assay [2]; 6.05 µM in assay [3]; 3.87 µM in [4]; 6.98 µM in assay [5]; 7.31 µM in [6]. For the same molecule, the TGI in [7] came to 10.4 µM; in assay [8], 2.97 µM; in assay [9] it was 3.85 µM; in assay [10], 68 µM.

Take `O=C(/C=C/c1cccc2ccccc12)Nc1ncc(Cc2ccccc2)s1`: the GI50 in assay [1] was 0.704 µM; in assay [2], 1.95 µM; in [3], 0.609 µM; in [4] it was 1.48 µM; in assay [5], 0.669 µM; in assay [6], 0.703 µM. Moreover, the GI50 in [7] was 2 µM; in assay [8], 0.738 µM; in assay [9], 3.89 µM; in assay [10], 1.71 µM. Moreover, the TGI was 3.27 µM in assay [1]; 6.02 µM in assay [2]; 3.71 µM in [3]; > 100 µM in assay [4]; 3.58 µM in assay [5]; 5.34 µM in assay [6]. In addition, the TGI in [7] is > 40.3 µM; in [8] it was 3.22 µM; in assay [9], > 100 µM; in assay [10], > 29.9 µM.

On to `O=C(Nc1cccc(C(F)(F)F)c1)c1cc2ccccc2cc1O`, for which the GI50 in [1] is 2.08 µM; in [2] it was 1.78 µM; in assay [3], 0.345 µM; in assay [4], 1.9 µM; in assay [5], 1.15 µM; in assay [6] it was 1.89 µM. Also, the GI50 in [7] was 2.08 µM; in assay [8], 0.783 µM; in assay [9], 3.05 µM; in [10], 1.55 µM. The TGI in [1] was 35.5 µM; in assay [2], > 30.4 µM; in assay [3], 1.22 µM; in assay [4] it was 4.6 µM; in [5], 12.1 µM; in assay [6], > 44 µM. Besides, the TGI in assay [7] was 7.08 µM; in [8], 6.1 µM; in assay [9], > 100 µM; in assay [10] it was 6.32 µM.

For `CN(C(=O)CNC(=O)/C=C/c1cccc(Cl)c1)C1CCS(=O)(=O)CC1`, the GI50 was 4.57 µM in assay [1]; 46.4 µM in [2]; 3.78 µM in assay [3]; 1.1 µM in assay [4]; 2.07 µM in assay [5]; 90.4 µM in assay [6]. Further, the GI50 in assay [7] is 0.525 µM; in [8] it was 1.21 µM; in [9] it was 59.3 µM; in assay [10], 18.2 µM. Further, the TGI in assay [1], in assay [2], in assay [3], in [4], in assay [5] and in assay [6] was > 100 µM each time. Also, the TGI in [7], in [8], in [9] and in assay [10] was > 100 µM in each case.

As to `O=Cc1ccc(N2CCN(c3ccc(C=O)cc3)CC2)cc1`, the GI50 in assay [1] is > 100 µM; in [2] it was > 100 µM; in [3], 10.8 µM; in assay [4], > 100 µM; in assay [5] it was > 100 µM; in assay [6] it was > 100 µM. Moreover, the GI50 in assay [7], in [8], in assay [9] and in [10] was > 100 µM in each case. Further, the TGI was > 100 µM in [1]; > 100 µM in assay [2]; 76.5 µM in [3]; > 100 µM in [4]; > 100 µM in assay [5]; > 100 µM in assay [6]. Besides, the TGI in assay [7], in assay [8], in [9] and in [10] was > 100 µM in each case.

With `COc1cc(Cn2c(-c3ccccc3)cc3c2-c2oncc2CC3)cc(OC)c1`, the GI50 is 0.601 µM in assay [1]; 0.786 µM in assay [2]; 0.354 µM in [3]; 0.256 µM in assay [4]; 0.264 µM in assay [5]; 0.264 µM in assay [6]. Moreover, the GI50 in [7] is 0.694 µM; in [8], 0.204 µM; in assay [9], 0.416 µM; in assay [10], 0.4 µM. In addition, the TGI in assay [1] was > 100 µM; in assay [2], > 100 µM; in assay [3], > 100 µM; in [4], 0.653 µM; in [5], 2.73 µM; in [6], 50.1 µM. The TGI in assay [7] was > 24.2 µM; in assay [8] it was 0.477 µM; in [9], > 100 µM; in [10], > 100 µM.

With `COc1cccc(NC2=C(Cl)C(=O)N(Cc3ccc(Cl)cc3)C2=O)c1`, the GI50 in assay [1] was 1.54 µM; in [2], 6.43 µM; in [3] it was 2.25 µM; in assay [4], 4.96 µM; in assay [5] it was 3.15 µM; in [6] it was 3.21 µM. The GI50 in [7] was 2.15 µM; in assay [8] it was 1.62 µM; in assay [9], 8.37 µM; in assay [10] it was 8.09 µM. Further, the TGI in assay [1] stood at 8.39 µM; in assay [2], 49.2 µM; in assay [3], 17.5 µM; in [4] it was 39.8 µM; in assay [5], 60.8 µM; in assay [6], 13.3 µM. The TGI amounted to 7.89 µM in assay [8], 36.3 µM in assay [9] and 60.6 µM in assay [10].

The values above are taken from PubChem BioAssay (NCI).
